Experimental data: patent US20090004185A1, “AMINO-SUBSTITUTED QUINAZOLINE DERIVATIVES AS INHIBITORS OF BETA-CATENIN/TCF-4 PATHWAY AND CANCER TREATMENT AGENTS” (WYETH, priority 2007, published 2009)

Legend:
[1] = tested on: β-catenin/Tcf-4; test: cells; format: cell-based; settings: 24 hours of incubation with compound, ratio Firefly/Renilla luciferase
Text: Background cell line: SW480 colorectal carcinoma DNA constructs:
1) Tcf-4-Luc: Tcf-4 binding sites driving Firefly Luciferase in the pGL3 vector—to measure the activity of β-catenin/Tcf-4;
(§1) 2) SV40-Luc: SV40 binding site driving Firefly Luciferase in the pGL3 vector—as a control for non-specific inhibitors; and
(§2) 3) SV40-R-Luc: SV40 binding site driving Renilla Luciferase in the pGL3 vector—as an internal control for cell number and toxicity.
This screen uses 3 cell lines derived from SW480 and selected to contain the above luciferase reporters integrated into their chromosomes as follows: […]
(§3) Cells: Tcf22C11 and SV5A8 were grown in the presence of 500 μg/ml G418 and Tcf 33.13 was grown in the presence of 500 μg/ml G418+125 μg/ml Zeocin to maintain the integrated reporters. The cells were trypsinized and plated at 1×10^4 cells/well in opaque 96 well plates.
The compounds were diluted as follows: The compounds were stored frozen in dimethyl sulfoxide (DMSO) at […]. Compounds were initially titrated in DMSO to make a 1000×DMSO stock solution. Compounds were then diluted 1:25 into media/DMSO (DMEM+10% FBS+9% DMSO). Using the Biomek Multimek, the diluted compounds were mixed well and immediately added to the plated cells in a 1:40 dilution. The final concentration of DMSO in the assay plates was 0.316% DMSO.
(§4) Assay Readout: The luciferase signal was detected using a luciferase detection kit from Promega. Until December 2003, Promega's Dual-Luciferase® Reporter (DLR™) Assay System was used to detect luciferase activity. Briefly, after 24 hours of incubation with compound, culture media was removed by aspiration and 20 ul of passive lysis buffer (Promega) per well was added. The plates were shaken for 15 min. Firefly substrate was then added and the resulting luminescence was immediately read on a CCD camera imaging device or a luminometer. After quantifying the firefly luminescence, the reaction was quenched, and the Renilla luciferase reaction was initiated simultaneously by adding Stop & Glo® Reagent to the same sample. Renilla luciferase was then quantified using the CCD camera or luminometer.
Promega's Dual-Glo™ Luciferase Assay System can be used for luciferase detection. […] Briefly, after 24 hours of incubation with compound, culture media was removed by aspiration and 75 ul of fresh medium was added. Add 75 ul of Dual-Glo Luciferase Reagent (Promega) to each well and mix by shaking for 10 minutes on a plate shaker. Then, measure the firefly luminescence on a CCD camera imaging device or a luminometer. After quantifying the firefly luminescence, add 75 ul of Dual-Glo Stop & Glo Reagent (Promega) to each well and mix for 10 minutes. Renilla luciferase was then quantified using the CCD camera or luminometer.
(§5) This assay was meant to confirm primary leads and determine IC50s. Compounds were tested at titrated dilutions. The raw data for this assay was reported in protocol 2463-B. Protocol 2463-C contains the IC50 calculations based on the raw data. The data calculations were done as follows:
(§6) The data was expressed as % of control for both Firefly and Renilla Luciferase. The ratio of FF/Renilla (F/R) was then calculated and averaged between duplicate plates. The data was then plotted using LSW Data Analysis in Microsoft Excel. IC50s were determined by plotting the data in the LSW Data Analysis program using model 33. The IC50s (nM) for all three cell lines were reported.

[2] = tested on: SV40-Luc; test: SV40-Luc control luciferase reporter assay, SV 5A8 cell line (SV40-Luc and SV40-R-Luc), control for non-specific inhibitors; format: cell-based, human; settings: SV 5A8 cells derived from SW480, 24 hours of incubation with compound, ratio Firefly/Renilla luciferase
Text: Background cell line: SW480 colorectal carcinoma DNA constructs: […]
as §1, §2
This screen uses 3 cell lines derived from SW480 and selected to contain the above luciferase reporters integrated into their chromosomes as follows:
SV 5A8—SV40-Luc and SV40-R-Luc
as §3
Compounds: 20-24 hours after cell plating, compounds were added at titrated concentrations between […]. The compounds were diluted as follows: The compounds were stored frozen in dimethyl sulfoxide (DMSO) at […]. Compounds were initially titrated in DMSO to make a 1000×DMSO stock solution. Compounds were then diluted 1:25 into media/DMSO (DMEM+10% FBS+9% DMSO). Using the Biomek Multimek, the diluted compounds were mixed well and immediately added to the plated cells in a 1:40 dilution. The final concentration of DMSO in the assay plates was 0.316% DMSO.
as §4
Promega's Dual-Glo™ Luciferase Assay System can be used for luciferase detection. It was similar to the DLR Assay, however, unlike the DLR which has to be read immediately due to decaying signal, the signal in the Dual-Glo™ Luciferase Assay was stable for up to 2 hours. Briefly, after 24 hours of incubation with compound, culture media was removed by aspiration and 75 ul of fresh medium was added. Add 75 ul of Dual-Glo Luciferase Reagent (Promega) to each well and mix by shaking for 10 minutes on a plate shaker. Then, measure the firefly luminescence on a CCD camera imaging device or a luminometer. After quantifying the firefly luminescence, add 75 ul of Dual-Glo Stop & Glo Reagent (Promega) to each well and mix for 10 minutes. Renilla luciferase was then quantified using the CCD camera or luminometer.
as §5, §6

[3] = Homo sapiens, SW480, 24 h, Tcf 33.13 cells derived from SW480
[4] = Homo sapiens, Tcf22C11, 24 h, Tcf 22C11 cells derived from SW480

Compound	IC50 [1, 3]	IC50 [1, 4]	IC50 ([2]; Homo sapiens, SV5A8, 24 h)	further results
Cc1ccc2c(NCc3ccc(NC(=O)Nc4ccc(Cl)cc4)cc3)nc(N(C)C)nc2c1 [Example 177, N-(4-chlorophenyl)-N′-[4-({[2-(dimethylamino)-7-methylquinazolin-4-yl]amino}methyl)phenyl]urea]	> 5420 nM	> 5420 nM	> 10800 nM	–
Cc1ccc2c(NCc3ccc(NC(=O)c4ccc(F)cc4)cc3)nc(NCCCN3CCN(C)CC3)nc2c1 [Example 229, 4-fluoro-N-(4-{[(7-methyl-2-{[3-(4-methylpiperazin-1-yl)propyl]amino}quinazolin-4-yl)amino]methyl}phenyl)benzamide]	2320 nM	2190 nM	> 4620 nM	–
N-(4-{[(2-azetidin-1-yl-7-methylquinazolin-4-yl)amino]methyl}phenyl)-1-benzylpiperidine-4-carboxamide [Example 137]	–	–	–	IC50 ([1]; Tcf 22C11 cells derived from SW480): 1260 nM; IC50 ([1]; Tcf 33.13 cells derived from SW480): 1130 nM; IC50 [2]: > 17300 nM
CNc1nc(NCc2ccc(NC(=O)c3ccc(C#N)cc3)cc2)c2cc(C)ccc2n1 [Example 25, 4-cyano-N-[4-({[6-methyl-2-(methylamino)quinazolin-4-yl]amino}methyl)phenyl]benzamide]	2960 nM	2710 nM	> 5920 nM	–
CN(C)c1nc(NCc2ccc(NC(=O)c3ccc(Cl)nc3)cc2)c2ccccc2n1 [Example 128, 6-chloro-N-[4-({[2-(dimethylamino)quinazolin-4-yl]amino}methyl)phenyl]nicotinamide]	708 nM	1130 nM	> 23100 nM	–
Cc1ccc2c(NCc3ccc(NC(=O)C4CCN(Cc5ccc(F)cc5Cl)CC4)cc3)nc(N(C)C)nc2c1 [Example 258, 1-(2-chloro-4-fluorobenzyl)-N-[4-({[2-(dimethylamino)-7-methylquinazolin-4-yl]amino}methyl)phenyl]piperidine-4-carboxamide]	215 nM	521 nM	> 7890 nM	–
Cc1ccc2c(NCc3ccc(NC(=O)c4ccc(F)cc4)cc3)nc(N3CCN(c4ncccn4)CC3)nc2c1 [Example 216, 4-fluoro-N-[4-({[7-methyl-2-(4-pyrimidin-2-ylpiperazin-1-yl)quinazolin-4-yl]amino}methyl)phenyl]benzamide]	315 nM	464 nM	> 3220 nM	–
CNc1nc(NCc2ccc(NC(=O)c3ccc(Cl)cc3F)cc2)c2ccccc2n1 [Example 14, 4-chloro-2-fluoro-N-[4-({[2-(methylamino)quinazolin-4-yl]amino}methyl)phenyl]benzamide]	1290 nM	891 nM	> 2870 nM	–
CN(C)c1nc(NCc2ccc(NC(=O)C3CCN(Cc4ccccc4)CC3)cc2)c2ccccc2n1 [Example 146, 1-benzyl-N-[4-({[2-(dimethylamino)quinazolin-4-yl]amino}methyl)phenyl]piperidine-4-carboxamide]	1770 nM	2000 nM	> 10100 nM	–
Cc1ccc2nc(N3CCN(C)CC3)nc(NCc3ccc(NC(=O)c4ccc(F)cc4)cc3)c2c1 [Example 48, 4-fluoro-N-[4-({[6-methyl-2-(4-methylpiperazin-1-yl)quinazolin-4-yl]amino}methyl)phenyl]benzamide]	> 20600 nM	> 20600 nM	> 20600 nM	–
CNc1nc(NCc2ccc(NC(=O)c3cccc(Cl)c3)cc2)c2ccccc2n1 [Example 11, 3-chloro-N-[4-({[2-(methylamino)quinazolin-4-yl]amino}methyl)phenyl]benzamide]	–	–	> 5980 nM	–
CNc1nc(NCc2ccc(NC(=O)c3ccc(C(F)(F)F)cc3)cc2)c2ccccc2n1 [Example 20, N-[4-({[2-(methylamino)quinazolin-4-yl]amino}methyl)phenyl]-4-(trifluoromethyl)benzamide]	–	–	> 1380 nM	–
CNc1nc(NCc2ccc(NC(=O)c3ccc(Cl)cc3)cc2)c2cccc(C)c2n1 [Example 191, 4-chloro-N-[4-({[8-methyl-2-(methylamino)quinazolin-4-yl]amino}methyl)phenyl]benzamide]	–	–	> 1450 nM	–
CCc1ccc2c(NCc3ccc(NC(=O)c4ccc(F)cc4)cc3)nc(N(C)C)nc2c1 [Example 88, N-[4-({[2-(dimethylamino)-7-ethylquinazolin-4-yl]amino}methyl)phenyl]-4-fluorobenzamide]	–	–	> 2600 nM	–
Cc1ccc2c(NCc3ccc(NC(=O)c4ccc(F)cc4)cc3)nc(N3CCCCC3)nc2c1 [Example 206, 4-fluoro-N-(4-{[(7-methyl-2-piperidin-1-ylquinazolin-4-yl)amino]methyl}phenyl)benzamide]	–	–	> 2660 nM	–
Cc1ccc2c(NCc3ccc(NC(=O)c4ccc(F)cc4)cc3)nc(N3CCN(C)CC3)nc2c1 [Example 204, 4-fluoro-N-[4-({[7-methyl-2-(4-methylpiperazin-1-yl)quinazolin-4-yl]amino}methyl)phenyl]benzamide]	–	–	> 10300 nM	–
Cc1ccc2c(NCc3ccc(NC(=O)c4ccc(F)cc4)cc3)nc(N3CCCC3)nc2c1 [Example 209, 4-fluoro-N-(4-{[(7-methyl-2-pyrrolidin-1-ylquinazolin-4-yl)amino]methyl}phenyl)benzamide]	–	–	> 2740 nM	–
CNc1nc(NCc2ccc(NC(=O)c3ccnc(Cl)c3)cc2)c2ccccc2n1 [Example 4, 2-chloro-N-[4-({[2-(methylamino)quinazolin-4-yl]amino}methyl)phenyl]isonicotinamide]	–	–	> 2980 nM	–
Cc1ccc2c(NCc3ccc(NC(=O)c4ccc(F)cc4)cc3)nc(N3CCNC(C)(C)C3)nc2c1 [Example 236, N-[4-({[2-(3,3-dimethylpiperazin-1-yl)-7-methylquinazolin-4-yl]amino}methyl)phenyl]-4-fluorobenzamide]	–	–	> 5010 nM	–
CN(C)c1nc(NCc2ccc(NC(=O)c3ccc(F)cc3)cc2)c2ccc(C=O)cc2n1 [Example 92, N-[4-({[2-(dimethylamino)-7-formylquinazolin-4-yl]amino}methyl)phenyl]-4-fluorobenzamide]	–	–	> 17900 nM	–
CNc1nc(NCc2ccc(NC(=O)c3ccc(C#N)cc3)cc2)c2ccccc2n1 [Example 21, 4-cyano-N-[4-({[2-(methylamino)quinazolin-4-yl]amino}methyl)phenyl]benzamide]	–	–	> 12200 nM	–
CNc1nc(NCc2ccc(NC(=O)c3ccc(F)cc3)cc2)c2ccccc2n1 [Example 13, 4-fluoro-N-[4-({[2-(methylamino)quinazolin-4-yl]amino}methyl)phenyl]benzamide]	–	–	> 778 nM	–
